The source of these data is patent US20250171438A1 (Agios Pharmaceuticals, Inc., priority 2022, published 2025).

A value given as a limit tells only on which side of the number the result lay.

In the first assay the target is T1, human PAH with the R408W mutation (Homo sapiens, UniProt P00439, R408W).
T1 construct: expressed in transfected cells
T1 sequence (P00439 1-452 R408W): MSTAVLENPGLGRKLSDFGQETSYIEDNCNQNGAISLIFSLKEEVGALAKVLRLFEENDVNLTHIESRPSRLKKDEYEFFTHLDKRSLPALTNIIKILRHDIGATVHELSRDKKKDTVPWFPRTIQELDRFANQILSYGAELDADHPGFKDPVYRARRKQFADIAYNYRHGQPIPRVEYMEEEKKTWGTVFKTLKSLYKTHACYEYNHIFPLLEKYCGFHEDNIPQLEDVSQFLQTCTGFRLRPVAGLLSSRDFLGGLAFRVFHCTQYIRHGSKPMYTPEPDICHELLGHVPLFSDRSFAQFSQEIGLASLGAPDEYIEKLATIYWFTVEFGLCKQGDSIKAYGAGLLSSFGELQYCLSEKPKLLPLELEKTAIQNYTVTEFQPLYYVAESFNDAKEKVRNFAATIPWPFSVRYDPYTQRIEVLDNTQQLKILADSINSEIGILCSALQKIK
The assay can be described thus: Cell Based Phenylalanine Flux Assay. As to conditions: A375 cells expressing human R408W PAH; 24 hrs compound incubation; 13C-Tyrosine by LC-MS; average where tested multiple times; read-out: AC50. Further details: scale not given here.
The AC50 is the concentration giving half of the maximal activity seen. With `CC(C)(O)c1ncc(C(=O)N2CCc3[nH]cnc3[C@@H]2c2nc3ccccc3s2)s1` [Example 1436, (R)-(4-(benzo[d]thiazol-2-yl)-6,7-dihydro-1H-imidazo[4,5-c]pyridin-5(4H)-yl)(2-(2-hydroxypropan-2-yl)thiazol-5-yl)methanone], the AC50 lay in the range of 1000 to 5000 nM.
Turning to `Cn1ccc(-c2nnc(C(=O)N3CCc4[nH]cnc4[C@@H]3c3nc4c(F)cccc4s3)o2)n1` [Example 1825, (R)-(4-(4-fluorobenzo[d]thiazol-2-yl)-6,7-dihydro-1H-imidazo[4,5-c]pyridin-5(4H)-yl)(5-(1-methyl-1H-pyrazol-3-yl)-1,3,4-oxadiazol-2-yl)methanone], the AC50 fell in the range of 500 to 1000 nM.
For the molecule `O=C(CCc1nccs1)N1CCc2[nH]cnc2[C@H]1c1nc(-c2ccccc2)cs1` [Example 2143], the AC50 is 1000 to 5000 nM.
As for `Cc1nn(C)cc1-c1ncc(C(=O)N2CCc3[nH]cnc3[C@H]2c2nc3ccccc3s2)s1` [Example 1379], the AC50 was below 500 nM.
Regarding `O=C(c1nnc(-c2c[nH]nc2C(F)(F)F)o1)N1CCc2[nH]cnc2[C@@H]1c1nc2ccccc2s1` [Example 1966, (R)-(4-(benzo[d]thiazol-2-yl)-6,7-dihydro-1H-imidazo[4,5-c]pyridin-5(4H)-yl)(5-(3-(trifluoromethyl)-1H-pyrazol-4-yl)-1,3,4-oxadiazol-2-yl)methanone], the AC50 fell in the range of 1000 to 5000 nM.
`O=C(CCC1CC1)N1CCc2[nH]cnc2[C@@H]1c1nc2cc(F)ccc2s1` [Example 1076, (R)-3-cyclopropyl-1-(4-(5-fluorobenzo[d]thiazol-2-yl)-6,7-dihydro-1H-imidazo[4,5-c]pyridin-5(4H)-yl)propan-1-one]: the AC50 is 1000 to 5000 nM.
With `O=C(c1nnc(C2CC2)o1)N1CCc2[nH]cnc2[C@@H]1c1nc2ccccc2s1` [Example 1364, (R)-(4-(benzo[d]thiazol-2-yl)-6,7-dihydro-1H-imidazo[4,5-c]pyridin-5(4H)-yl)(5-cyclopropyl-1,3,4-oxadiazol-2-yl)methanone], the AC50 lay in the range of 1000 to 5000 nM.
Regarding `COCc1ccc2c(C(=O)N3CCc4[nH]cnc4[C@H]3c3nc4ccccc4s3)cnn2c1` [Example 1309], the AC50 is 500 to 1000 nM.
The same measure, in the same setting: next, `Cc1cc(-c2nnc(C(=O)N3CCc4[nH]cnc4[C@H]3c3nc4ccccc4s3)o2)nn1C` [Example 1944]: 500 to 1000 nM; `O=C(c1cnc(-c2ccc(F)cn2)s1)N1CCc2[nH]cnc2[C@@H]1c1nc2ccccc2s1` [Example 1340, (R)-(4-(benzo[d]thiazol-2-yl)-6,7-dihydro-1H-imidazo[4,5-c]pyridin-5(4H)-yl)(2-(5-fluoropyridin-2-yl)thiazol-5-yl)methanone]: 1000 to 5000 nM.
Same read-out and setting: next, `O=C(c1cnn(CC(F)(F)F)c1Cl)N1CCc2[nH]cnc2[C@H]1c1nc2c(F)cccc2s1` [Example 1967, (S)-(5-chloro-1-(2,2,2-trifluoroethyl)-1H-pyrazol-4-yl)(4-(4-fluorobenzo[d]thiazol-2-yl)-6,7-dihydro-1H-imidazo[4,5-c]pyridin-5(4H)-yl)methanone]: below 500 nM.
As for `O=C(c1cncs1)N1CCc2[nH]cnc2[C@@H]1c1nc2ccccc2s1` [Example 1060, (R)-(4-(benzo[d]thiazol-2-yl)-6,7-dihydro-1H-imidazo[4,5-c]pyridin-5(4H)-yl)(thiazol-5-yl)methanone], the AC50 is above 5000 nM.
Consider `O=C(C1CC1(F)F)N1CCc2[nH]cnc2[C@H]1c1nc2ccccc2s1` (single isomer, unassigned) [Example 1287], for which the AC50 was above 5000 nM.
Take `O=C(c1ncc(Cl)s1)N1CCc2[nH]cnc2[C@@H]1c1nc2c(F)cccc2s1` [Example 1220, (R)-(5-chlorothiazol-2-yl)(4-(4-fluorobenzo[d]thiazol-2-yl)-6,7-dihydro-1H-imidazo[4,5-c]pyridin-5(4H)-yl)methanone]: the AC50 lay in the range of 1000 to 5000 nM.
On to `O=C(c1cn(CC(F)F)nc1Cl)N1CCc2[nH]cnc2[C@@H]1c1nc2c(F)cccc2s1` [Example 1982, (R)-(3-chloro-1-(2,2-difluoroethyl)-1H-pyrazol-4-yl)(4-(4-fluorobenzo[d]thiazol-2-yl)-6,7-dihydro-1H-imidazo[4,5-c]pyridin-5(4H)-yl)methanone], for which the AC50 lay in the range of 1000 to 5000 nM.
On to `Cn1nc(C(F)F)cc1C(=O)N1CCc2[nH]cnc2[C@@H]1c1nc2c(F)cccc2s1` [Example 1732, (R)-(3-(difluoromethyl)-1-methyl-1H-pyrazol-5-yl)(4-(4-fluorobenzo[d]thiazol-2-yl)-6,7-dihydro-1H-imidazo[4,5-c]pyridin-5(4H)-yl)methanone], for which the half-maximal activity concentration (AC50) was 1000 to 5000 nM.
On the same count and under the same terms, in the case of `C[C@H](O)c1nc(C(F)F)c(C(=O)N2CCc3[nH]cnc3[C@H]2c2nc3ccccc3s2)o1` [Example 2095] it was below 500 nM; in that of `CC(C)(O)c1nc(C(F)F)c(C(=O)N2CCc3[nH]cnc3[C@@H]2c2nc3c(F)cccc3s2)o1` [Example 1774, (R)-(4-(difluoromethyl)-2-(2-hydroxypropan-2-yl)oxazol-5-yl)(4-(4-fluorobenzo[d]thiazol-2-yl)-6,7-dihydro-1H-imidazo[4,5-c]pyridin-5(4H)-yl)methanone], 1000 to 5000 nM.
In the case of `O=C(c1nncs1)N1CCc2[nH]cnc2[C@@H]1c1nc2c(F)cccc2s1` [Example 1269, (R)-(4-(4-fluorobenzo[d]thiazol-2-yl)-6,7-dihydro-1H-imidazo[4,5-c]pyridin-5(4H)-yl)(1,3,4-thiadiazol-2-yl)methanone], the AC50 lay in the range of 1000 to 5000 nM.
Regarding `CC(C)(O)c1cccc2c(C(=O)N3CCc4[nH]cnc4[C@@H]3c3nc4ccccc4s3)cnn12` [Example 1482, (R)-(4-(benzo[d]thiazol-2-yl)-6,7-dihydro-1H-imidazo[4,5-c]pyridin-5(4H)-yl)(7-(2-hydroxypropan-2-yl)pyrazolo[1,5-a]pyridin-3-yl)methanone], the AC50 was in the range of 1000 to 5000 nM.
`O=C(c1ncn2ccccc12)N1CCc2[nH]cnc2[C@H]1c1nc2ccccc2s1` [Example 1027]: the AC50 fell in the range of 500 to 1000 nM.
Still for that read-out and setting: next, `CN(C)Cc1ccc2c(C(=O)N3CCc4[nH]cnc4[C@H]3c3nc4c(F)cccc4s3)cnn2c1` [Example 1619, (S)-(6-((dimethylamino)methyl)pyrazolo[1,5-a]pyridin-3-yl)(4-(4-fluorobenzo[d]thiazol-2-yl)-6,7-dihydro-1H-imidazo[4,5-c]pyridin-5(4H)-yl)methanone]: 500 to 1000 nM.
As to `Cc1nc(C(F)(F)F)oc1C(=O)N1CCc2[nH]cnc2[C@@H]1c1nc2ccccc2s1` [Example 1394, (R)-(4-(benzo[d]thiazol-2-yl)-6,7-dihydro-1H-imidazo[4,5-c]pyridin-5(4H)-yl)(4-methyl-2-(trifluoromethyl)oxazol-5-yl)methanone], the AC50 lay in the range of 1000 to 5000 nM.
As for `O=C(c1nnc(-n2cccn2)o1)N1CCc2[nH]cnc2[C@H]1c1nc2ccccc2s1` [Example 1792], the AC50 was below 500 nM.
With `C[C@@H]1CN(C(=O)c2nnc(-c3ccc(F)cn3)o2)[C@@H](c2nc3ccccc3s2)c2nc[nH]c21` [Example 1753, ((4R,7R)-4-(benzo[d]thiazol-2-yl)-7-methyl-6,7-dihydro-1H-imidazo[4,5-c]pyridin-5(4H)-yl)(5-(5-fluoropyridin-2-yl)-1,3,4-oxadiazol-2-yl)methanone], the AC50 lay within 1000 to 5000 nM.

The assay is the same for the next values; noted with them: A375 cells expressing human R408W PAH; 24 hrs with compound; 13C-Tyrosine by LC-MS; average where tested multiple times.
Turning to `CC(C)(O)CCc1nc(C(F)(F)F)c(C(=O)N2CCc3[nH]cnc3C2c2nc3ccccc3s2)o1` (stereo not drawn), the AC50 result is given as “E, E”.

The assay is the same for the next values; noted with them: A375 cells expressing human R408W PAH; 24 hrs with compound; 13C-Tyrosine by LC-MS; average where tested multiple times; read-out: AC50.
As to `O=C(c1cn[nH]c1)N1CCc2nc[nH]c2C1c1nc2c(F)cccc2s1` (stereo not drawn) [listing 1 of 2 here], the AC50 is 1000 to 5000 nM.
As for `Cn1nc(CC#N)nc1C(=O)N1CCc2[nH]cnc2C1c1nc2c(F)cccc2s1` (stereo not drawn), the AC50 lay within 1000 to 5000 nM.
The same measure, in the same setting: in the case of `O=C(c1cnco1)N1CCc2[nH]cnc2C1c1nc2c(F)cccc2s1` (stereo not drawn) it was 1000 to 5000 nM; in that of `O=C(c1cnco1)N1CCc2[nH]cnc2C1c1nc2cc(F)ccc2s1` (stereo not drawn), 1000 to 5000 nM; in that of `N#Cc1nc(NCC(F)(F)F)oc1C(=O)N1CCc2[nH]cnc2C1c1nc2ccccc2s1` (stereo not drawn), 1000 to 5000 nM.
With `O=C(c1nnc(CCCN2CCOCC2)o1)N1CCc2[nH]cnc2C1c1nc2ccccc2s1` (stereo not drawn), the AC50 is 1000 to 5000 nM.
On the same count and under the same terms, next, `O=C(c1oc(C2CCN2)nc1C(F)F)N1CCc2[nH]cnc2C1c1nc2c(F)cccc2s1` (stereo not drawn): 1000 to 5000 nM.
Regarding `O=C(Cc1coc(C(F)F)n1)N1CCc2[nH]cnc2C1c1nc2ccccc2s1` (stereo not drawn), the AC50 fell in the range of 1000 to 5000 nM.
On to `O=C(c1cn[nH]c1)N1CCc2nc[nH]c2C1c1nc2c(F)cccc2s1` (stereo not drawn) [listing 2 of 2 here], for which the AC50 is above 5000 nM.
As to `O=C(c1n[nH]c2ccccc12)N1CCc2[nH]cnc2C1c1nc2ccc(F)cc2s1` (stereo not drawn), the AC50 is 1000 to 5000 nM.
With `O=C(c1oc(-c2ccccn2)nc1C1CC1)N1CCCc2[nH]cnc2C1c1nc2ccccc2[nH]1` (stereo not drawn), the AC50 is above 5000 nM.
On the same count and under the same terms, next, `Nc1nnc(CCC(=O)N2CCc3[nH]cnc3C2c2nc3ccccc3s2)s1` (stereo not drawn): above 5000 nM; `O=C(c1cnn2cc(Cl)ccc12)N1CCc2[nH]cnc2C1c1nc2ccccc2[nH]1` (stereo not drawn): above 5000 nM.
On to `CS(=O)(=O)N1CC(C(=O)N2CCc3[nH]cnc3C2c2nc3ccccc3s2)C1` (stereo not drawn), for which the AC50 is above 5000 nM.
Consider `O=C(c1ncn2ccccc12)N1CCc2[nH]cnc2C1c1nc2ccc(Br)cc2[nH]1` (stereo not drawn), for which the AC50 is above 5000 nM.
Same read-out and setting: in the case of `Cc1nc(C(=O)N2CCc3[nH]cnc3C2c2nc3ccccc3s2)n(C)n1` (stereo not drawn) it was 1000 to 5000 nM.
